The results in this text go back to publication PMC3161871, “Heteroarylketones inhibit astroglial interleukin-6 expression via a STAT3/NF-κB signaling pathway” (Journal of Neuroinflammation, 2011).

Data set [1] addresses T1, human recombinant prolyl endopeptidase (PREP) (Homo sapiens, UniProt P48147).
T1 construct: made in house
T1 sequence (P48147 1-710): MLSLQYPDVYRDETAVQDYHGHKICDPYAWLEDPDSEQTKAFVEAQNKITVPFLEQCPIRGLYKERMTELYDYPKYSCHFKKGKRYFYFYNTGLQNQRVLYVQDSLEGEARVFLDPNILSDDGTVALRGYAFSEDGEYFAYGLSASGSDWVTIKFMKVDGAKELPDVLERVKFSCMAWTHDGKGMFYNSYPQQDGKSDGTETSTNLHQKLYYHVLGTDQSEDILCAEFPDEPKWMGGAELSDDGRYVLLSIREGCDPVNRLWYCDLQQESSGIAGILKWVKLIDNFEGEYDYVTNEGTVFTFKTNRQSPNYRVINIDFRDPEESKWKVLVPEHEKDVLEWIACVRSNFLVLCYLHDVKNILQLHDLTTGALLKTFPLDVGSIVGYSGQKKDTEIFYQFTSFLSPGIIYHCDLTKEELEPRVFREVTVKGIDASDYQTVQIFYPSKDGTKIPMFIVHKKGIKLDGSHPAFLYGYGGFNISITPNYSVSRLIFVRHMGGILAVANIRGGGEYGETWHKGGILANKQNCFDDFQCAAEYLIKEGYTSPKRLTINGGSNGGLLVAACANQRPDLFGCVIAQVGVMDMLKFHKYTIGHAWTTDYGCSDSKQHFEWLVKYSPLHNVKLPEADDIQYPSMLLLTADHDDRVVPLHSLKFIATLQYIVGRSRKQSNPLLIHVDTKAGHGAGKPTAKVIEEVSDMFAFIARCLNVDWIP
Kind of data set: PREP enzymatic activity assay (Z-Gly-Pro-pNA, photometric). Format: biochemical. The settings on record: recombinant PREP, Z-Gly-Pro-pNA 62.5/125/250 μM, pH 7.6, 30°C, competitive fit. As to the method: The activity of human recombinant prolyl endopeptidase (PREP) was determined photometrically using the substrate Z-Gly-Pro-pNA (Bachem, Weil am Rhein, Germany) usually at a concentration of 150 μM. As assay buffer 50 mM HEPES buffer pH 7.6, containing 200 mM NaCl, 1 mM EDTA, and 1 mM dithiothreitol was used. Release of pNA was monitored continuously at 405 nm for 15 min at 30°C in a 96-well plate reader (Spectrafluor, Tecan, Crailsheim, Germany). PREP activity was calculated from the slope of the time product curve with the help of a pNA standard. For determination of Ki values three different substrate concentrations (62.5 μM; 125 μM and 250 μM) and seven different inhibitor concentrations were analyzed. Substrate concentrations were selected to be at the Km value of Z-Gly-Pro-pNA (125 μM) as well as half and twice the Km. Data were fitted by non-linear regression to the competitive inhibitor equation (Graphit 5.0, Erithacus software).

Data set [2] can be described thus: Brain bioavailability by LC-MS/MS of mouse plasma and brain samples. The class given is in vivo. Here is the method:
Based on the results obtained from primary murine astrocytes, we reasoned that HAK compounds might also suppress elevated IL-6 expression in vivo. Therefore, bioactivity of the compound HAK-2 was analyzed in the LPS-induced mouse septic shock model. In preparation of this in vivo study, selected HAK compounds were characterized in detail concerning brain bioavailability. […] For further in vivo investigations compound HAK-2 with a logBB of -0.22 was selected.

The subject of data set [3] is LPS-induced IL-6 release in primary mouse astrocytes. Kind of data set: LPS-induced IL-6 release in primary mouse astrocytes (ELISA). Format: cell-based. To be noted: 1 μg/ml LPS, 20 μM compound, 24 h. Here is the method: According to Löffler, astrocyte-rich primary cell cultures were started with brains of newborn mice and rats and were maintained in Dulbecco's modified Eagle's medium (DMEM) for 33 days at 37°C in a humified atmosphere with 95% air/5% CO2.
Measurements of IL-6 in conditioned medium and murine plasma samples were done by means of human- or murine-specific IL-6 Cytoset kits (Invitrogen, Darmstadt, Germany) according to manufacturer's protocols.
Figure 5 Suppression of LPS-induced IL-6 release in primary murine astrocytes by selected HAK compounds. […] Astrocytes derived from newborn mice and rats were cultivated for 33 days followed by stimulation with 1 μg/ml LPS and treatment with compounds HAK-2 and HAK-5 (20 μM). After 24 hours conditioned media were analyzed with IL-6 specific ELISA. Data (mean ± SD) were obtained from experiments carried out in quadruplicate and statistical analysis was performed using the paired t test. Amount of IL-6 in LPS-treated control sample was set to 100%. ns, not significant; **p < 0.01; ***p < 0.001.
Primary murine astrocytes stimulated with 1 μg/ml LPS were co-treated with compounds HAK-2 and HAK-5 at a concentration of 20 μM each for 24 h. The observed effect of compounds HAK-2 and HAK-5 on LPS stimulation was similar to that of OSM-induced IL-6 expression in human U343 glioma cells (Figures 5A and 5B). […]
(In general: ELISA stands for enzyme-linked immunosorbent assay.)

For orientation: Ki means a measure of affinity in units of concentration, obtained from inhibition or displacement.

Molecules are shown by their SMILES.

In the case of `C[C@H](NC(=O)OCc1ccccc1)C(=O)N1CCC[C@H]1C(=O)c1nc2ccccc2s1` [HAK-2, Z-Ala-Pro-BTh], in data set [1], the Ki came to 0.038 nM. The logBB in data set [2] was -0.22. For the same molecule, in data set [3], the “Reduction of LPS-induced IL-6 expression” value is on record as 60%.
